# Source: US10774064B2 (Cadent Therapeutics, Inc., priority 2016, dated 2020)
# Target: T1, small-conductance Ca2+-activated K+ channels (SK channels, subtype 2) (Homo sapiens, UniProt Q9H2S1)
# T1 construct: expressed in transfected cells; host or cells: HEK293
# Experiment: whole-cell patch-clamp of ionic current through SK2 channels in HEK293 cells (SC100)
# Assay type: cell-based
# Settings: concentration that increases the basal current by 100%; HEK293 cells expressing SK2 channels
# Protocol: The biological activity was determined as follows. The ionic current through small-conductance Ca^2+-activated K^+ channels (SK channels, subtype 2) was measured using the whole-cell configuration of the patch-clamp technique in a patch-clamp set-up using HEK293 tissue culture cells expressing SK2 channels as described in Hougaard et al., British Journal of Pharmacology 151, 655-665, May 8, 2007, the entire teachings of which are incorporated herein by reference. In one aspect, a compound is defined to be an SK PAM if the compound increases current in this assay, for example, if the SC100 value of the compound is less than or equal to 10 μM as determined by this assay. The SC100 value is defined to be the concentration of compound that increases the basal current by 100%.
row,SMILES,SC100
1,"Cc1cc(C)n(-c2cc(OCc3cnn(C)n3)cc(NC3CCC(F)(F)CC3)n2)n1 [Compound 251, N-(4,4-difluorocyclohexyl)-6-(3,5-dimethyl-1H-pyrazol-1-yl)-4-((2-methyl-2H-1,2,3-triazol-4-yl)methoxy)pyridin-2-amine]",++ (++ means 200 nM-1000 nM)
2,Cc1cc(C)n(-c2nc3c(c(NC4CCC(F)(F)CC4)n2)CCN(Cc2ccccc2)C3)n1 [Compound 116],++ (++ means 200 nM-1000 nM)
3,"COC(=O)N1CC(Oc2cc(NC3CCC(F)(F)CC3)nc(-c3nc(C(F)(F)F)cs3)n2)C1 [Compound 324, methyl 3-((6-((4,4-difluorocyclohexyl)amino)-2-(4-(trifluoromethyl)thiazol-2-yl)pyrimidin-4-yl)oxy)azetidine-1-carboxylate]",++ (++ means 200 nM-1000 nM)
4,"Cc1cc(C)n(-c2cc(OCc3nnc(C)o3)cc(NC3CCC(F)(F)CC3)n2)n1 [Compound 261, N-(4,4-difluorocyclohexyl)-6-(3,5-dimethyl-1H-pyrazol-1-yl)-4-((5-methyl-1,3,4-oxadiazol-2-yl)methoxy)pyridin-2-amine]",++ (++ means 200 nM-1000 nM)

# Next, values leading:
row,SC100,SMILES
1,++ (++ means 200 nM-1000 nM),"CCOC(=O)N1CC(Oc2cc(NC3CCC(F)(F)CC3)nc(-n3ccc(CF)n3)n2)C1 [Compound 287, ethyl 3-((6-((4,4-difluorocyclohexyl)amino)-2-(3-(fluoromethyl)-1H-pyrazol-1-yl)pyrimidin-4-yl)oxy)azetidine-1-carboxylate]"
2,+ (+ means >1 uM),"Cc1cc(NC2CCC(F)(F)CC2)nc(-n2ccc(CO)n2)n1 [Compound 204, (1-(4-((4,4-difluorocyclohexyl)amino)-6-methylpyrimidin-2-yl)-1H-pyrazol-3-yl)methanol]"
3,+ (+ means >1 uM),"Cc1cc(C)n(-c2nc(NC3CCC(F)(F)CC3)cc([C@@H]3COCC[C@H]3O)n2)n1 [Compound 254, (+)-3-(6-((4,4-difluorocyclohexyl)amino)-2-(3,5-dimethyl-1H-pyrazol-1-yl)pyrimidin-4-yl)tetrahydro-2H-pyran-4-ol]"
4,++ (++ means 200 nM-1000 nM),"COC(=O)N1CCC(Oc2cc(NC3CCC(F)(F)CC3)nc(-n3ccc(C(F)F)n3)n2)C1 (stereo not drawn) [Compound 305, methyl 3-((6-((4,4-difluorocyclohexyl)amino)-2-(3-(difluoromethyl)-1H-pyrazol-1-yl)pyrimidin-4-yl)oxy)pyrrolidine-1-carboxylate]"
5,++ (++ means 200 nM-1000 nM),"Cc1cc(C)n(-c2nc(NC3CCC(F)(F)CC3)cc(N3CCO[C@@H](CO)C3)n2)n1 (single isomer, unassigned) [Compound 112, (+)-(4-(6-((4,4-difluorocyclohexyl)amino)-2-(3,5-dimethyl-1H-pyrazol-1-yl)pyrimidin-4-yl)morpholin-2-yl)methanol]"

# Same assay, conditions: whole-cell patch-clamp, HEK293 cells expressing SK2 channels; concentration that increases the basal current by 100%
row,SMILES,SC100 (μM)
1,COC(=O)N(C)C1CC(Oc2cc(NC3CCC(F)(F)CC3)nc(-c3nc(C)cs3)n2)C1 (stereo not drawn) [NSSy5730],++ (++ means 200 nM-1000 nM)
2,"COc1cc(NC2CCC(F)(F)CC2)nc(-c2nc(C3CC3)cs2)n1 [IN11147-054-P1, 2-(4-cyclopropylthiazol-2-yl)-N-(4,4-difluorocyclohexyl)-6-methoxypyrimidin-4-amine]",++ (++ means 200 nM-1000 nM)
3,COc1cc(NC2CCC(F)(F)C2)nc(-c2nc(C)cs2)n1 (stereo not drawn) [IN11125-028-P1],+ (+ means >1 uM)
4,"CC(=O)N1CCC(O)(c2cc(NC3CCC(F)(F)CC3)nc(-c3nc(C)cs3)c2)CC1 [NSSy6436, 1-(4-(2-((4,4-difluorocyclohexyl)amino)-6-(4-methylthiazol-2-yl)pyridin-4-yl)-4-hydroxypiperidin-1-yl)ethan-1-one]",+++ (+++ means <200 nM)
5,COc1cc(NC2CCSCC2)nc(-c2nc(C)cs2)n1 [IN11079-072-P1],+ (+ means >1 uM)
6,COc1cc(NC2CCCOC2)nc(-c2nc(C)cs2)n1 (stereo not drawn) [IN11106-027-P1],+ (+ means >1 uM)
7,"CNC(=O)Oc1c(NC2CCC(F)(F)CC2)nc(-c2nc(C)cs2)[nH]c1=O [IN11125-006-P1, 4-((4,4-difluorocyclohexyl)amino)-6-hydroxy-2-(4-methylthiazol-2-yl)pyrimidin-5-yl methylcarbamate]",+ (+ means >1 uM)
8,Cc1csc(-c2nc(NC3CCC(F)(F)CC3)cc(OCc3cnnn3C)n2)n1 [NSSy5625],+++ (+++ means <200 nM)
9,Cc1nsc(-c2nc(NC3CCC(F)(F)CC3)cc(N3CCS(=O)(=O)CC3)n2)n1 [NSSy6125],++ (++ means 200 nM-1000 nM)
10,Cc1csc(-c2nc(NC3CCC(F)(F)CC3)cc(N3CCOC(COC(C)C)C3)n2)n1 (stereo not drawn) [IN10964-007-P1],+++ (+++ means <200 nM)
11,COc1c(NC2CCC(F)(F)CC2)nc(-c2nc(C)cs2)nc1N1CCOCC1 [IN11125-001-P1],+ (+ means >1 uM)
12,Cc1csc(-c2nc(NC3CCC(F)(F)CC3)cc(N(C)C3COC3)n2)n1 [IN10882-043-P1],+ (+ means >1 uM)

# The next lines start with the values.
row,SC100 (μM),SMILES
1,+ (+ means >1 uM),"Cc1ccn(-c2cc3c(c(NC4CCC(F)(F)CC4)n2)CCCC3)n1 [IN11039-036-P1, N-(4,4-difluorocyclohexyl)-3-(3-methyl-1H-pyrazol-1-yl)-5,6,7,8-tetrahydro isoquinolin-1-amine]"
2,+++ (+++ means <200 nM),"Cc1ccn(-c2cc(COC3CCCNC3)cc(NC3CCC(F)(F)CC3)n2)n1 (stereo not drawn) [IN11039-019-P1, N-(4,4-difluorocyclohexyl)-6-(3-methyl-1H-pyrazol-1-yl)-4-((piperidin-3-yloxy)methyl)pyridin-2-amine]"
3,+ (+ means >1 uM),"Cc1cc(NC2CCC(F)(F)CC2)nc(-n2ccc(=O)[nH]2)n1 [IN11079-067-P1, 1-(4-((4,4-difluorocyclohexyl)amino)-6-methylpyrimidin-2-yl)-1H-pyrazol-3-ol]"
4,+ (+ means >1 uM),"CC(=O)c1cc(NC2CCC(F)(F)CC2)nc(-n2nc(C)cc2C)n1 [IN10881-040-P1, 1-(6-((4,4-difluorocyclohexyl)amino)-2-(3,5-dimethyl-1H-pyrazol-1-yl)pyrimidin-4-yl)ethan-1-one]"
5,++ (++ means 200 nM-1000 nM),"CC(=O)NCc1cc(NC2CCC(F)(F)CC2)nc(-c2nc(C)cs2)c1 [NSSy5640, N-((2-((4,4-difluorocyclohexyl)amino)-6-(4-methylthiazol-2-yl)pyridin-4-yl)methyl)acetamide]"
6,++ (++ means 200 nM-1000 nM),Cc1cc(-c2nc(C)cs2)nc(NC2CCC(F)(F)CC2)n1 [NSSy6590]
7,+++ (+++ means <200 nM),Cc1ccn(-c2nc(COc3ccc(C(N)=O)nn3)cc(NC3CCC(F)(F)CC3)n2)n1 [IN11053-046-P1]
8,++ (++ means 200 nM-1000 nM),Cc1csc(-c2nc(NC3CCC(F)(F)CC3)cc(N3CCCCC3)n2)n1 [IN10881-021.P1]
9,+ (+ means >1 uM),CCOc1cc(NC2CCC(F)(F)CC2)nc(-n2ccc(C)n2)n1 [IN11063-005-P1]
10,++ (++ means 200 nM-1000 nM),"COc1cc(NC2CCC(F)(F)CC2)nc(-n2ccc(C)n2)c1 [IN11054-054-P1, N-(4,4-difluorocyclohexyl)-4-methoxy-6-(3-methyl-1H-pyrazol-1-yl)pyridin-2-amine]"
11,+ (+ means >1 uM),Cc1ccn(-c2nc(NC3CCC(F)(F)CC3)cc(OCC(F)(F)F)n2)n1 [IN11054-011-P1]
12,+++ (+++ means <200 nM),COc1cc(C#N)cnc1OCc1cc(NC2CCC(F)(F)CC2)nc(-n2ccc(C)n2)c1 [IN11125-008-P1]
